One molecule from patent publication US20120059020A1, “PROPHYLACTIC OR THERAPEUTIC AGENT FOR PULMONARY FIBROSIS” (SHIZUOKA COFFEIN CO., LTD, priority 2009, published 2012) can be followed below.

The test system of data set [1] is mouse models with bleomycin-induced pulmonary fibrosis. Description: In vivo effect on pulmonary fibrosis induced by bleomycin. On the set-up: species or system C57BL/6 mice. The source says:
The present inventors conducted a test using mouse models with pulmonary fibrosis induced by transtracheally administering bleomycin, for the purpose of studying the antifibrotic action of the propanedioic acid derivative of the present invention in vivo. This experimental model of pulmonary fibrosis is clinically similar to idiopathic pulmonary fibrosis in pathological observations such as increased inflammatory cells and the increased amount of hydroxyproline in an extracellular matrix-constituting collagen ingredient used as an index for fibrosis, and is widely used.
C57BL/6 mice (female, 12 week old, body weight: 20 to 23 g) were anesthetized by the intraperitoneal administration of pentobarbital. The trachea was incised, and bleomycin (NIPPON KAYAKU CO., LTD.) (1.5 mg/kg) dissolved in saline was transtracheally administered thereto. […]
20 days after bleomycin administration, a bronchoalveolar lavage fluid (BALF) was collected from each mouse, and a PAI-1 concentration (ng/mL) in the fluid was measured using an ELISA kit (Mouse PAI-1 ELISA kit, Innovative research Inc.). Subsequently, the amount of hydroxyproline was measured for pulmonary fibrosis evaluation. The amount of hydroxyproline in the lung tissue was measured as the amount in a lung tissue hydrolysate according to the method of Kivirikko et al. (Anal. Biochem. 19, 249-255 (1967)). […]

Another data set is described as follows: Solubility test in water. Format: physicochemical. The protocol:
Solubility test on a 2Na salt of a typical compound (1) (disodium salt of [5-[[6-[4-phenyl-6-(phenylmethoxy)-2-pyrimidinyl]-2-naphthalenyl]oxy]pentyl]propanedioic acid) used in the present invention in water is shown below.
Water of 20±2° C. was added to the 2Na salt of the compound (1), and the mixture was vigorously shaken for 30 seconds and left standing for 5 minutes. This operation was repeated until the 2Na salt of the compound (1) was completely dissolved. The final amount of water required for the dissolution was determined. The solubility of the 2Na salt of the compound (1) in water of 45±5° C. was determined by similar operation.

A short description of data set [2]: Stability test in aqueous solution (HPLC assay). It is filed as physicochemical. To be noted: for Purity: aqueous solution 1 g/100 mL, 35° C. Here is the method:
Stability test on the 2Na salt of the compound (1) used in the present invention in an aqueous solution is shown below.
Injectable distilled water was added to 1 g of the 2Na salt of the compound (1) to prepare 100 mL of a sample solution. The sample solution was equally divided. One portion was shielded against light, and the other portion was unshielded. Each of them was stored at 35° C. for 11 days during which these sample solutions were assayed over time using high-performance liquid chromatography and examined for stability.
YMC-Pack ODS-A A-302 (YMC Co., Ltd.) was used as a column, and the column temperature was kept at a constant temperature around 40° C. A tetrahydrofuran/0.1% phosphoric acid (54:46) mixed solution was used as a mobile phase. A flow rate was adjusted such that the retention time of the compound (1) was approximately 7 minutes. An ultraviolet absorptiometer (measurement wavelength: 265 nm) was used as a detector.

`O=C([O-])C(CCCCCOc1ccc2cc(-c3nc(OCc4ccccc4)cc(-c4ccccc4)n3)ccc2c1)C(=O)[O-].[Na+].[Na+]` [2Na salt of compound (1), disodium salt of [5-[[6-[4-phenyl-6-(phenylmethoxy)-2-pyrimidinyl]-2-naphthalenyl]oxy]pentyl]propanedioic acid]: the “Fibrotic process of the lung induced by bleomycin” value in data set [1] (1000 ppm in drinking water, free feeding, mice, listed as 2Na salt of the compound (1)) is recorded as “remarkable effectiveness that suppressed the fibrotic process of the lung”. In addition, the “Amount of hydroxyproline in lung tissue compared with the control group” value in data set [1] (group 2 (late stage): 1000 ppm in drinking water from 8 to 20 days after bleomycin (fibrotic stage), approx. 20 mg/kg/day, measured 20 days after bleomycin) is “significantly decreased”. Moreover, the “Amount of solvent required for dissolving 1 g” value in “Solubility test in water” (Water (20 ± 2° C.)) amounted to 33 mL; in the data set “Solubility test in water” (Water (45 ± 5° C.)) it was 1.2 mL. In addition, the “Solubility in water” value in “Solubility test in water” (water) is on record as “excellent in solubility in water”. In addition, in data set [2] (35° C. for 11 days, light-shielded or unshielded), the “Stability of aqueous solution” value was “stable”. The Purity in data set [2] (light-shielded, 0 days elapsed) is recorded as 99.8%; in data set [2] (light-shielded, 1 day elapsed) it was 99.8%; in data set [2] (light-shielded, 6 days elapsed) it was 99.8%; in data set [2] (light-shielded, 11 days elapsed) it was 99.8%; in data set [2] (unshielded, 0 days elapsed), 99.8%; in data set [2] (unshielded, 1 day elapsed) it was 99.8%. Moreover, the Purity was 99.7% in data set [2] (unshielded, 6 days elapsed) and 99.7% in data set [2] (unshielded, 11 days elapsed).
